Test results taken from US10723765B2, “Beta-hairpin peptidomimetics as selective elastase inhibitors” (POLYPHOR AG, priority 2013, dated 2020).
Non-standard residues stand in square brackets, D forms with d. Residues, ends and D or L forms follow the SMILES beside them. Gly(octyl) = CCCCCCCC[C@H](N)C(=O)O; hTyr = N[C@@H](CCc1ccc(O)cc1)C(=O)O; Nle = CCCC[C@H](N)C(=O)O

How the values were obtained:
Type in all cases: biochemical
[1] = biological target: T1, human neutrophil elastase (Homo sapiens, UniProt P08246); experiment: Inhibition of human neutrophil elastase (MeOSuc-AAPV-pNA hydrolysis); settings: 10 nM enzyme, 0.3 mM substrate, 37° C., pH 8; read-out: Human neutrophil elastase (hNE) IC50
T1 construct: purchased Serva Electrophoresis, Germany
T1 sequence (P08246 30-267): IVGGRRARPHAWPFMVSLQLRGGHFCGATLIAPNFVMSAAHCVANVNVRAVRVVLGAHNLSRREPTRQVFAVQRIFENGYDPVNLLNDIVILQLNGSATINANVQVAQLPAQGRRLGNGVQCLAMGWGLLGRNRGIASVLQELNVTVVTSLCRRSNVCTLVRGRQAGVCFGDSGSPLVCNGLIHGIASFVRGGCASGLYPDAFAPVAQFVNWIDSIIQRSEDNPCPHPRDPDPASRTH
Method: 2.2. Inhibition of Human Neutrophil Elastase
The ability of the peptides of the invention to inhibit the hydrolysis activity of human neutrophil elastase (Serva Electrophoresis, Germany) using the synthetic tetrapeptidic substrate MeOSuc-AAPV-pNA (Bachem, Switzerland) was determined as follows:
(§1) The above substrate (0.3 mM) and human neutrophil elastase (10 nM) were incubated at 37° C. with serial dilutions of the peptides (1% DMSO final) in assay buffer (50 mM Tris, pH 8, 300 mM NaCl, 0.01% Tween20). The release of pNA was followed by monitoring the change in absorbance at 405 nm for 30 minutes. Control assays with the same assay set-up as above, but without peptide, ran linearly. The dose-response data were fitted to the 4-parameter Hill equation providing the IC50 value using Graphpad (Prism 5).

[2] = biological target: T2, porcine pancreatic elastase (Sus scrofa, UniProt P00772); experiment: Inhibition of porcine pancreatic elastase (MeOSuc-AAA-pNA hydrolysis); settings: for IC50: 15 nM enzyme, 1 mM substrate, 37° C., pH8, read-out: Porcine pancreatic elastase (PPE) IC50; for hNE/PPE selectivity: ratio of PPE IC50 to hNE IC50
T2 construct: purchased Sigma, USA
T2 sequence (P00772 27-266): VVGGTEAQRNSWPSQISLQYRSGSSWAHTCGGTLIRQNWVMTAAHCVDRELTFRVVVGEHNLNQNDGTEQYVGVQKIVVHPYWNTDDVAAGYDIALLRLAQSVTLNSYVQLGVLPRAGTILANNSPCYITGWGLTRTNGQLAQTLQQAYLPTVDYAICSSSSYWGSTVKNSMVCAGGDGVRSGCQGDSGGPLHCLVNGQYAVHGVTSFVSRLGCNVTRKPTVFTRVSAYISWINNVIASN
Method: 2.3. Inhibition of Porcine Pancreatic Elastase
The ability of the peptides of the invention to inhibit the hydrolysis activity of porcine pancreatic elastase (Sigma, USA) using the synthetic tripeptidic substrate MeOSuc-AAA-pNA (Bachem, Switzerland) was determined as follows:
as §1, with “(1” for “(0.3”, “porcine pancreatic” for “neutrophil”, “(15” for “(10”, “(0.5%” for “(1%”, “pH8, 100” for “pH 8, 300”

human proteinase 3 = biological target: T3, human proteinase 3 (Homo sapiens, UniProt P24158); experiment: Inhibition of human proteinase 3 (Boc-Ala-Ala-Nva-SBzl); settings: for IC50: 10 nM enzyme, 1 mM substrate, 37° C., pH7.4, read-out: Human proteinase 3 (hPr3) IC50; for hNE/hPr3 selectivity: ratio of hPr3 IC50 to hNE IC50
T3 construct: purchased Elastin Products Company, USA
T3 sequence (P24158 28-248): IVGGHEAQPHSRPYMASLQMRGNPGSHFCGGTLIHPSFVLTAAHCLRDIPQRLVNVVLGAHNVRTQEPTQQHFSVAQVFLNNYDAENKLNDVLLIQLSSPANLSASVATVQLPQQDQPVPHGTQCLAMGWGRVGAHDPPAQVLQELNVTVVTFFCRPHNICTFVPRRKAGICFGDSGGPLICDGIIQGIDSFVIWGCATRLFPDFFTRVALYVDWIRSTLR
Method: 2.4. Inhibition of Human Proteinase 3
The inactivation of human proteinase 3 (Elastin Products Company, USA) by the peptides of the invention using synthetic tripeptidic substrate Boc-Ala-Ala-Nva-SBzl (Elastin Products Company, USA) was determined as follows:
as §1, with “(1 mM), 4,4′-dithiodipyridine (250 μM)” for “(0.3 mM)”, “proteinase 3” for “neutrophil elastase”, “(0.5%” for “(1%”, “pH7.4, 150” for “pH 8, 300”, “reaction process” for “release of pNA”, “340” for “405”

SMILES	IC50 [1]	IC50 [2]	hNE/PPE selectivity [2]	IC50 (human proteinase 3)	hNE/hPr3 selectivity (human proteinase 3)
CCCCCCCC[C@@H]1NC(=O)[C@@H]2CCCN2C(=O)[C@H]2CCCN2C(=O)[C@H](CC(N)=O)NC(=O)[C@H](CCCCN)NC(=O)[C@H](CCC(N)=O)NC(=O)[C@@H]2CCCN2C(=O)[C@@H]2CCCN2C(=O)[C@H]([C@@H](C)CC)NC(=O)[C@H](CO)NC(=O)[C@H](C)NC(=O)[C@H]([C@@H](C)O)NC(=O)[C@H](CCC(=O)O)NC1=O [Example 1, Cyclo(-OctGly-Glu-Thr-Ala-Ser-Ile-Pro-Pro-Gln-Lys-Asn-^DPro-Pro-)] (cyclo([Gly(octyl)]ETASIPPQKN[dP]P))	0.0053 µM	1.55 µM	292	1.81 µM	342
CCCCCCCC[C@@H]1NC(=O)[C@@H]2CCCN2C(=O)[C@H]2CCCN2C(=O)[C@H]([C@@H](C)O)NC(=O)[C@H](CCCCN)NC(=O)[C@H](Cc2ccc(O)cc2)NC(=O)[C@@H]2CCCN2C(=O)[C@@H]2CCCN2C(=O)[C@H]([C@@H](C)CC)NC(=O)[C@H](CO)NC(=O)[C@H](C)NC(=O)[C@H]([C@@H](C)O)NC(=O)[C@H](CCC(=O)O)NC1=O [Example 2, Cyclo(-OctGly-Glu-Thr-Ala-Ser-Ile-Pro-Pro-Tyr-Lys-Thr-^DPro-Pro-)] (cyclo([Gly(octyl)]ETASIPPYKT[dP]P))	0.0054 µM	0.53 µM	98	1.52 µM	282
CCCCCCCC[C@@H]1NC(=O)[C@@H]2CCCN2C(=O)[C@H]2CCCN2C(=O)[C@H](CO)NC(=O)[C@H](CCCCN)NC(=O)[C@H](CCC(N)=O)NC(=O)[C@@H]2CCCN2C(=O)[C@@H]2CCCN2C(=O)[C@H]([C@@H](C)CC)NC(=O)[C@H](CO)NC(=O)[C@H](C)NC(=O)[C@H]([C@@H](C)O)NC(=O)[C@H](CCC(=O)O)NC1=O [Example 3, Cyclo(-OctGly-Glu-Thr-Ala-Ser-Ile-Pro-Pro-Gln-Lys-Ser-^DPro-Pro-)] (cyclo([Gly(octyl)]ETASIPPQKS[dP]P))	0.0055 µM	0.79 µM	144	1.44 µM	262
CCCCCCCC[C@@H]1NC(=O)[C@@H]2CCCN2C(=O)[C@H]2CCCN2C(=O)[C@H]([C@@H](C)O)NC(=O)[C@H](CCCCN)NC(=O)[C@H](CCC(N)=O)NC(=O)[C@@H]2CCCN2C(=O)[C@@H]2CCCN2C(=O)[C@H]([C@@H](C)CC)NC(=O)[C@H](CO)NC(=O)[C@H](C)NC(=O)[C@H]([C@@H](C)O)NC(=O)[C@H](CCC(=O)O)NC1=O [Example 4, Cyclo(-OctGly-Glu-Thr-Ala-Ser-Ile-Pro-Pro-Gln-Lys-Thr-^DPro-Pro-)] (cyclo([Gly(octyl)]ETASIPPQKT[dP]P))	0.0079 µM	2.75 µM	348	2.15 µM	272

Further lines, results first:

IC50 [1]	IC50 [2]	hNE/PPE selectivity [2]	IC50 (human proteinase 3)	hNE/hPr3 selectivity (human proteinase 3)	SMILES
0.0127 µM	1.75 µM	138	1.71 µM	135	CC[C@H](C)[C@@H]1NC(=O)[C@H](CO)NC(=O)[C@H](C)NC(=O)[C@H]([C@@H](C)O)NC(=O)[C@H](CCc2ccc(O)cc2)NC(=O)[C@H](CCCNC(=N)N)NC(=O)[C@@H]2CCCN2C(=O)[C@H]2CCCN2C(=O)[C@H](Cc2ccc(O)cc2)NC(=O)[C@H](CCCCN)NC(=O)[C@H](CCC(N)=O)NC(=O)[C@@H]2CCCN2C(=O)[C@@H]2CCCN2C1=O [Example 5, Cyclo(-Arg-hTyr-Thr-Ala-Ser-Ile-Pro-Pro-Gln-Lys-Tyr-^DPro-Pro-)] (cyclo(R[hTyr]TASIPPQKY[dP]P))
0.0155 µM	2.69 µM	174	2.37 µM	153	CCCC[C@@H]1NC(=O)[C@H](CCCNC(=N)N)NC(=O)[C@@H]2CCCN2C(=O)[C@H]2CCCN2C(=O)[C@H](Cc2ccc(O)cc2)NC(=O)[C@H](CCCCN)NC(=O)[C@H](CCC(N)=O)NC(=O)[C@@H]2CCCN2C(=O)[C@@H]2CCCN2C(=O)[C@H]([C@@H](C)CC)NC(=O)[C@H](CO)NC(=O)[C@H](C)NC(=O)[C@H]([C@@H](C)O)NC1=O [Example 6, Cyclo(-Arg-Nle-Thr-Ala-Ser-Ile-Pro-Pro-Gln-Lys-Tyr-^DPro-Pro-)] (cyclo(R[Nle]TASIPPQKY[dP]P))
